Experimental data taken from publication PMC6154583, “Optimized 4,5-Diarylimidazoles as Potent/Selective Inhibitors of Protein Kinase CK1δ and Their Structural Relation to p38α MAPK” (Molecules : A Journal of Synthetic Chemistry and Natural …, 2017).

What was measured:
CDK5/p25NCK = CDK5/p25NCK (Homo sapiens, UniProt Q00535); experiment: ProQinase 33PanQinase selectivity profiling; type: biochemical; settings: 100 nM, relative to control, read-out: Residual activity (%)
CK1-epsilon = CK1-epsilon (Homo sapiens, UniProt P49674); experiment: ProQinase 33PanQinase selectivity profiling; type: biochemical; settings: 100 nM, relative to control, read-out: Residual activity (%)
ACV-R1B = target: T1, ACV-R1B (Homo sapiens, UniProt P36896); experiment: ProQinase 33PanQinase selectivity profiling; type: biochemical; settings: 100 nM, relative to control, read-out: Residual activity (%)
T1 construct: purchased ProQinase GmbH (Freiburg, Germany)

JNK3 = JNK3 (Homo sapiens, UniProt P53779); experiment: ProQinase 33PanQinase selectivity profiling; type: biochemical; settings: 100 nM, relative to control, read-out: residual activity
CDK1/CycA2 = CDK1/CycA2 (Homo sapiens, UniProt P06493); experiment: ProQinase 33PanQinase selectivity profiling; type: biochemical; settings: 100 nM, relative to control, read-out: Residual activity (%)
EPHA4 = target: T2, EPHA4 (Homo sapiens, UniProt P54764); experiment: ProQinase 33PanQinase selectivity profiling; type: biochemical; settings: 100 nM, relative to control, read-out: Residual activity (%)
T2 construct: purchased ProQinase GmbH

CAMKK2 = CAMKK2 (Homo sapiens, UniProt Q96RR4); experiment: ProQinase 33PanQinase selectivity profiling; type: biochemical; settings: 100 nM, relative to control, read-out: Residual activity (%)
CDK4/CycD1 = CDK4/CycD1 (Homo sapiens, UniProt P11802); experiment: ProQinase 33PanQinase selectivity profiling; type: biochemical; settings: 100 nM, relative to control, read-out: Residual activity (%)
CDK2/CycE1 = CDK2/CycE1 (Homo sapiens, UniProt P24941); experiment: ProQinase 33PanQinase selectivity profiling; type: biochemical; settings: 100 nM, relative to control, read-out: Residual activity (%)
AMPK-alpha1 aa1-550 = target: T3, AMPK-alpha1 aa1-550 (Homo sapiens, UniProt Q13131); experiment: ProQinase 33PanQinase selectivity profiling; type: biochemical; settings: 100 nM, relative to control, read-out: Residual activity (%)
T3 construct: AMPK-alpha1 aa1-550; purchased ProQinase GmbH (Freiburg, Germany)

EEF2K = EEF2K (Homo sapiens, UniProt O00418); experiment: ProQinase 33PanQinase selectivity profiling; type: biochemical; settings: 100 nM, relative to control, read-out: Residual activity (%)
ASK1 = ASK1 (Homo sapiens, UniProt Q99683); experiment: ProQinase 33PanQinase selectivity profiling; type: biochemical; settings: 100 nM, relative to control, read-out: Residual activity (%)
CDK7/CycH/MAT1 = CDK7/CycH/MAT1 (Homo sapiens, UniProt P50613); experiment: ProQinase 33PanQinase selectivity profiling; type: biochemical; settings: 100 nM, relative to control, read-out: Residual activity (%)
CLK1 = CLK1 (Homo sapiens, UniProt P49759); experiment: ProQinase 33PanQinase selectivity profiling; type: biochemical; settings: 100 nM, relative to control, read-out: Residual activity (%)
CAMK2B = CAMK2B (Homo sapiens, UniProt Q13554); experiment: ProQinase 33PanQinase selectivity profiling; type: biochemical; settings: 100 nM, relative to control, read-out: Residual activity (%)
EIF2AK2 = target: T4, EIF2AK2 (Homo sapiens, UniProt P19525); experiment: ProQinase 33PanQinase selectivity profiling; type: biochemical; settings: 100 nM, relative to control, read-out: Residual activity (%)
T4 construct: purchased ProQinase GmbH

CAMK2A = CAMK2A (Homo sapiens, UniProt Q9UQM7); experiment: ProQinase 33PanQinase selectivity profiling; type: biochemical; settings: 100 nM, relative to control, read-out: Residual activity (%)
EPHA3 = EPHA3 (Homo sapiens, UniProt P29320); experiment: ProQinase 33PanQinase selectivity profiling; type: biochemical; settings: 100 nM, relative to control, read-out: Residual activity (%)
CHK1 = CHK1 (Homo sapiens, UniProt O14757); experiment: ProQinase 33PanQinase selectivity profiling; type: biochemical; settings: 100 nM, relative to control, read-out: Residual activity (%)
CAMKK1 = CAMKK1 (Homo sapiens, UniProt Q8N5S9); experiment: ProQinase 33PanQinase selectivity profiling; type: biochemical; settings: 100 nM, relative to control, read-out: Residual activity (%)
CAMK2D = CAMK2D (Homo sapiens, UniProt Q13557); experiment: ProQinase 33PanQinase selectivity profiling; type: biochemical; settings: 100 nM, relative to control, read-out: Residual activity (%)
ALK (GST-HIS-tag) = target: T5, ALK (GST-HIS-tag) (Homo sapiens, UniProt Q9UM73); experiment: ProQinase 33PanQinase selectivity profiling; type: biochemical; settings: 100 nM, relative to control, read-out: Residual activity (%)
T5 construct: GST; HIS; purchased ProQinase GmbH (Freiburg, Germany)

DNA-PK = DNA-PK (Homo sapiens, UniProt P78527); experiment: ProQinase 33PanQinase selectivity profiling; type: biochemical; settings: 100 nM, relative to control, read-out: Residual activity (%)
COT = target: T6, COT (Homo sapiens, UniProt P41279); experiment: ProQinase 33PanQinase selectivity profiling; type: biochemical; settings: 100 nM, relative to control, read-out: Residual activity (%)
T6 construct: purchased ProQinase GmbH

CDC42BPB = target: T7, CDC42BPB (Homo sapiens, UniProt Q9Y5S2); experiment: ProQinase 33PanQinase selectivity profiling; type: biochemical; settings: 100 nM, relative to control, read-out: Residual activity (%)
T7 construct: purchased ProQinase GmbH

DYRK4 = DYRK4 (Homo sapiens, UniProt Q9NR20); experiment: biochemical; settings: read-out: Residual activity (%)
EGF-R = EGF-R (Homo sapiens, UniProt P00533); experiment: ProQinase 33PanQinase selectivity profiling; type: biochemical; settings: 100 nM, relative to control, read-out: Residual activity (%)
CHK2 = target: T8, CHK2 (Homo sapiens, UniProt O96017); experiment: ProQinase 33PanQinase selectivity profiling; type: biochemical; settings: 100 nM, relative to control, read-out: Residual activity (%)
T8 construct: purchased ProQinase GmbH

BRSK2 = BRSK2 (Homo sapiens, UniProt Q8IWQ3); experiment: ProQinase 33PanQinase selectivity profiling; type: biochemical; settings: 100 nM, relative to control, read-out: Residual activity (%)
Chain of BRSK2 (Q8IWQ3 whole entry): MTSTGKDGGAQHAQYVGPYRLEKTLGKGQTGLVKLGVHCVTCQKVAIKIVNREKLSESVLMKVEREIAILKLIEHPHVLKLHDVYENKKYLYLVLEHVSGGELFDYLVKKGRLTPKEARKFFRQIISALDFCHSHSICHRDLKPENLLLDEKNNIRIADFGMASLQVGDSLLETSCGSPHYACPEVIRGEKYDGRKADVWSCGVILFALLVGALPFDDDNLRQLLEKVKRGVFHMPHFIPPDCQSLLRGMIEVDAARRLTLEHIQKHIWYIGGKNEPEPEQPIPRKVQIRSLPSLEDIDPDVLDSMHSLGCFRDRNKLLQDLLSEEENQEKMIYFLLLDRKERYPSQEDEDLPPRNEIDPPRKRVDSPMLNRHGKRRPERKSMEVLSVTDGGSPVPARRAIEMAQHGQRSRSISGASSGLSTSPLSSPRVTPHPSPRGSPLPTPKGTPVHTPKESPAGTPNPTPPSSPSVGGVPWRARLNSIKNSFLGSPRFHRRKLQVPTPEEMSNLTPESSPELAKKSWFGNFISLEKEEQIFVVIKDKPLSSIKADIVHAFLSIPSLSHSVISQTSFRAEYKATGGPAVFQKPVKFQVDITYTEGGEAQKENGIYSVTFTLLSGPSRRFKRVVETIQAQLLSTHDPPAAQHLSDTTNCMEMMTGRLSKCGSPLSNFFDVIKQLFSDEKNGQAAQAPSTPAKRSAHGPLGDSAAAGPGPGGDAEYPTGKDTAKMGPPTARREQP

Chain of JNK3 (P53779 whole entry): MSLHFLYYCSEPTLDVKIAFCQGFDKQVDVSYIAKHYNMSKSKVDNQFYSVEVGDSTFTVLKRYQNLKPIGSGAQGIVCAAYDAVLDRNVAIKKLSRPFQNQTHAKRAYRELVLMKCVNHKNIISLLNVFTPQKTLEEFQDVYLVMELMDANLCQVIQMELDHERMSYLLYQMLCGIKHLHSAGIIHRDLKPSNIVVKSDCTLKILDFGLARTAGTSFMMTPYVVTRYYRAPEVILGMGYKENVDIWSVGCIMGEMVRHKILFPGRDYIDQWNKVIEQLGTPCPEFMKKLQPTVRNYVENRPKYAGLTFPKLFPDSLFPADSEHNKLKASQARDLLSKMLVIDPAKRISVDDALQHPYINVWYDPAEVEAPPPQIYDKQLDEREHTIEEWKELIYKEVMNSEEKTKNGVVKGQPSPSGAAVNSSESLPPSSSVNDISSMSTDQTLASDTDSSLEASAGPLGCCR
Chain of CLK1 (P49759 whole entry): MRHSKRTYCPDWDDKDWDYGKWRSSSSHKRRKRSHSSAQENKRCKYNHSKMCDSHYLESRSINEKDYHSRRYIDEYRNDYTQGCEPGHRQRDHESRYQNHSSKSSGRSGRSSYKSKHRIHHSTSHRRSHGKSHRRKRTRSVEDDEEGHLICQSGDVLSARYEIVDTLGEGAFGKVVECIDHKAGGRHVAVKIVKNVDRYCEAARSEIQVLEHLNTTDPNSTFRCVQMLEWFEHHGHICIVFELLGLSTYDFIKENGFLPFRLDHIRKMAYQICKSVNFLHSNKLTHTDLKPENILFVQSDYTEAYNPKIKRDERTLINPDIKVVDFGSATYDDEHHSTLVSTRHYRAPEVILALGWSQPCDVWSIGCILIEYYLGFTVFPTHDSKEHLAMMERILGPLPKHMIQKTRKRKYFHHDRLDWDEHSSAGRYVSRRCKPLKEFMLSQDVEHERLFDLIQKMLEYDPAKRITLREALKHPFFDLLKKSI
Chain of EEF2K (O00418 whole entry): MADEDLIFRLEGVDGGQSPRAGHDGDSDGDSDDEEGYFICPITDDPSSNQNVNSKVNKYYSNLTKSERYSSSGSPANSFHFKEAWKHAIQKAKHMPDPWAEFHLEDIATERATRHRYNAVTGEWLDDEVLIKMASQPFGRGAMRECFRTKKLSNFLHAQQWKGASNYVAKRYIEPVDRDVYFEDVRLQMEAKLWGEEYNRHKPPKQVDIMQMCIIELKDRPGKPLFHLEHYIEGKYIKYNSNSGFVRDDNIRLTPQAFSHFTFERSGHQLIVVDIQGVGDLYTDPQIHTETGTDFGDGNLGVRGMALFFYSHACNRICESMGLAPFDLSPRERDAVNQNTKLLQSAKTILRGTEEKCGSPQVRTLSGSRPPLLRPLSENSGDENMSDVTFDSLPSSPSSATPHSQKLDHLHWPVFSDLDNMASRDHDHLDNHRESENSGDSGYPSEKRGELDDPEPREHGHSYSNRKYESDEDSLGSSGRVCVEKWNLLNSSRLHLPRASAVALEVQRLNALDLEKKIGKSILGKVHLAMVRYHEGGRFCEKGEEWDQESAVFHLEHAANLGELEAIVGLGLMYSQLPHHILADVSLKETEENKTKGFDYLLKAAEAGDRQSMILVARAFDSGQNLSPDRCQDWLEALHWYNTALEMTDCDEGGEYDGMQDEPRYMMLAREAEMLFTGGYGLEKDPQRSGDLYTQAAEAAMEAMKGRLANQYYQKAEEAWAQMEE
Chain of CAMK2D (Q13557 whole entry): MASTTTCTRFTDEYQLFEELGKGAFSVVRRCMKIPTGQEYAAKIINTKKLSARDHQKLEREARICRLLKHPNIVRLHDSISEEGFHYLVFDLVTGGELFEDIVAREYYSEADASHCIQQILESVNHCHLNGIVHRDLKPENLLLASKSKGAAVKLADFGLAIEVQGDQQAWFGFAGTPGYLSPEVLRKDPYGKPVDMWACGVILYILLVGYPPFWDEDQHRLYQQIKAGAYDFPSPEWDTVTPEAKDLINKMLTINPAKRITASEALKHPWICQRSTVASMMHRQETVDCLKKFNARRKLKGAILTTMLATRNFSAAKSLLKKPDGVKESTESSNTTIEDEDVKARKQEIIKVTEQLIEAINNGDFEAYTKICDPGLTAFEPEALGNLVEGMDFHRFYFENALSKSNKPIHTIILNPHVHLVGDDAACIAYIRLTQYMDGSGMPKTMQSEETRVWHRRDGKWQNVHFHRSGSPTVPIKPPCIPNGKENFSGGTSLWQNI
Chain of CK1-epsilon (P49674 whole entry): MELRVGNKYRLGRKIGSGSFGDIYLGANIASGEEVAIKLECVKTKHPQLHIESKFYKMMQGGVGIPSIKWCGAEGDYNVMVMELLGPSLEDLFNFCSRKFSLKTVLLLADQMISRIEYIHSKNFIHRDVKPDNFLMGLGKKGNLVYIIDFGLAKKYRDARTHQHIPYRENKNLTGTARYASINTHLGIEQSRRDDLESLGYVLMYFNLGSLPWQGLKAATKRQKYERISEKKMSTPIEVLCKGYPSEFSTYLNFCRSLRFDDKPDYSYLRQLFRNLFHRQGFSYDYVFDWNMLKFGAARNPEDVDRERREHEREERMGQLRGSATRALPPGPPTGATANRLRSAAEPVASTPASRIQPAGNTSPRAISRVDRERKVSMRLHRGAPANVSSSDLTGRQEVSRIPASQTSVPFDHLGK
T7 sequence (Q9Y5S2 whole entry): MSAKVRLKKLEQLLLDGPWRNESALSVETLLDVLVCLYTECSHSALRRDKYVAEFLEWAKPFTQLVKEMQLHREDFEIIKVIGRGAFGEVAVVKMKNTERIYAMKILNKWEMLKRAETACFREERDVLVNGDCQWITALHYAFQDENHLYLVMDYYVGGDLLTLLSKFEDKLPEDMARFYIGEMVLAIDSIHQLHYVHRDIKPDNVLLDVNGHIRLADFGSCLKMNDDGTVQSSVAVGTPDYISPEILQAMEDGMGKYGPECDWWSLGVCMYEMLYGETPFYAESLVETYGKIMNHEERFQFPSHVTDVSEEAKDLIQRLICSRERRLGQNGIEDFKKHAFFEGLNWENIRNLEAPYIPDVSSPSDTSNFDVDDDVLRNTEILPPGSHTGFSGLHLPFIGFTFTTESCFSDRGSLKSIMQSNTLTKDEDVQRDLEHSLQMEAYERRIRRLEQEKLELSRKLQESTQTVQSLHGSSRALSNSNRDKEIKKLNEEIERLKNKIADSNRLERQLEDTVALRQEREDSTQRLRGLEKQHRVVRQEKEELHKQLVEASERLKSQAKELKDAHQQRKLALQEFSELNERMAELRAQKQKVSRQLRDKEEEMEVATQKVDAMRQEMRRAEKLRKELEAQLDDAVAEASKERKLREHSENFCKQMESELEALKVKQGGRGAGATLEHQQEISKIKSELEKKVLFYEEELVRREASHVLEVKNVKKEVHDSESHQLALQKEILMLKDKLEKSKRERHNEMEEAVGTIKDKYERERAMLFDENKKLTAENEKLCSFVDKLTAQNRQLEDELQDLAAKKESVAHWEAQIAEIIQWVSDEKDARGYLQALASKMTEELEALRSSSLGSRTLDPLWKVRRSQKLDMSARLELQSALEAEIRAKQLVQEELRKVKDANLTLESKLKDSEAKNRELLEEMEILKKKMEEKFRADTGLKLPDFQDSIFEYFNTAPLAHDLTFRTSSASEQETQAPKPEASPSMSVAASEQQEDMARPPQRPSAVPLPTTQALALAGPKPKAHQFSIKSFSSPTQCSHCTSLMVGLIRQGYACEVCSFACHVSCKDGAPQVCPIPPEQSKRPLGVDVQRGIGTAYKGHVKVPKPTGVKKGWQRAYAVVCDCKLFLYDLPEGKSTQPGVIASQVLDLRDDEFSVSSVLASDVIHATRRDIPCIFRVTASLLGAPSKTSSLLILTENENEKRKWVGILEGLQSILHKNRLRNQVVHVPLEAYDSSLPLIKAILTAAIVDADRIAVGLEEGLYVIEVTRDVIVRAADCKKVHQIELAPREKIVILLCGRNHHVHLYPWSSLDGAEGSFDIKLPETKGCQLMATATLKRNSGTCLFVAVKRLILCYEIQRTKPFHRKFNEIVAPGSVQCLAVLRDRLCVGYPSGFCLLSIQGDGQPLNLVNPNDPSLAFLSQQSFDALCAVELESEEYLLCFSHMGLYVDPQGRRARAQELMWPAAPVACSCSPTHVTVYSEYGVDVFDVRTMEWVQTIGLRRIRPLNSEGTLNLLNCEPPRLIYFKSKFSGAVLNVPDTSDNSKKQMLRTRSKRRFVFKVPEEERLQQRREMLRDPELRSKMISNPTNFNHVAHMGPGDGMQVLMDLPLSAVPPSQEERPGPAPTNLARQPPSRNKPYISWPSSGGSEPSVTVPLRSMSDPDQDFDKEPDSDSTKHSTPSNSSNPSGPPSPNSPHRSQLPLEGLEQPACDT

## COc1ccc(OC)c(CCC(=O)Nc2cc(-c3nc(SC)[nH]c3-c3ccc(F)cc3)ccn2)c1 [11b, 3-(2,5-Dimethoxyphenyl)-N-(4-(5-(4-fluorophenyl)-2-(methylthio)-1H-imidazol-4-yl)-pyridin-2-yl)-propanamide]
CDK5/p25NCK
  remaining activity at 0.1 µM: 117%
CK1-epsilon
  remaining activity at 0.1 µM: 7%
ACV-R1B
  remaining activity at 0.1 µM: 101%
JNK3
  remaining activity at 0.1 µM: 37%
CDK1/CycA2
  remaining activity at 0.1 µM: 91%
EPHA4
  remaining activity at 0.1 µM: 96%
CAMKK2
  remaining activity at 0.1 µM: 96%
CDK4/CycD1
  remaining activity at 0.1 µM: 98%
CDK2/CycE1
  remaining activity at 0.1 µM: 99%
AMPK-alpha1 aa1-550
  remaining activity at 0.1 µM: 96%
EEF2K
  remaining activity at 0.1 µM: 84%
ASK1
  remaining activity at 0.1 µM: 93%
CDK7/CycH/MAT1
  remaining activity at 0.1 µM: 102%
CLK1
  remaining activity at 0.1 µM: 105%
CAMK2B
  remaining activity at 0.1 µM: 103%
EIF2AK2
  remaining activity at 0.1 µM: 91%
CAMK2A
  remaining activity at 0.1 µM: 95%
EPHA3
  remaining activity at 0.1 µM: 97%
CHK1
  remaining activity at 0.1 µM: 92%
CAMKK1
  remaining activity at 0.1 µM: 99%
CAMK2D
  remaining activity at 0.1 µM: 96%
ALK (GST-HIS-tag)
  remaining activity at 0.1 µM: 114%
DNA-PK
  remaining activity at 0.1 µM: 95%
COT
  remaining activity at 0.1 µM: 111%
CDC42BPB
  remaining activity at 0.1 µM: 88%
DYRK4
  remaining activity at 0.1 µM: 100%
EGF-R
  remaining activity at 0.1 µM: 113%
CHK2
  remaining activity at 0.1 µM: 98%
BRSK2
  remaining activity at 0.1 µM: 105%
